Laboratory results taken from patent US4559326A, “Antiinflammatory compositions and methods” (Pfizer Inc., priority 1985, dated 1985).
Where a name gives a salt, the structure may show the parent alone.

System: Gastric lesions induced by the ethanolamine salt of piroxicam
Test: Protective effect of inositol on piroxicam-induced gastric lesions in rats
Type: in vivo, rat (CD strain, Sprague-Dawley)
Details: for Significance p < 0.05: two-tailed Student's t-test; for Lesions/Rat (X +/- SE): mean (SE)
Method: Adult male "specific pathogen free" rats weighing 140-160 grams of the CD strain (Sprague-Dawley) were obtained from Charles River Breeding Laboratories (Kingston, N.Y.). The animals were acclimated for approximately one week and tested when they reached a body weight of 200-225 grams. The rats were fasted for 16 hours and randomized into groups consisting of 8 to 20 animals which were normalized with regard to their average body weight.
Gastric ulcers were induced in the animals by orally dosing them with a single 120 mg/kg dose of piroxicam (ethanolamine salt) in 2 ml. of aqueous 0.1% methylcellulose (pH=6.8). Those animals receiving a second medicinal agent separately received the second drug in an additional 2 ml. of the same medium at about the same time. Six and one-half hours later, the animals were sacrificed by cervical dislocation and autopsied. The stomachs were surgically removed, dissected along the greater curvature and rinsed with cold water. The stomachs were individually scored for both linear and punctate lesions. The total number of lesions was used for scoring purposes. The data obtained from each group of rats were analyzed after calculation of the mean number +/- the standard error of total gastric lesions. The values obtained were also compared to the controls which received only piroxicam by the two-tailed Student's T-Test for nonpaired data.

SMILES | ED50 (Rattus norvegicus, 6.5 h, oral, linear regression analysis, lesions induced by 120 mg/kg piroxicam ethanolamine salt, read-out: ED50 (dose of inositol required to inhibit 50% of control gastric lesion)) | Reduction of piroxicam-induced gastric lesions (healthy fasted rat, statement in words) | Significance p < 0.05 (inositol 10 mg/kg oral vs piroxicam-only control) | Lesions/Rat (X +/- SE) (inositol 10 mg/kg oral, with 120 mg/kg oral piroxicam ethanolamine salt, fasted male rats, 6.5 h, 40 rats) | Significance p < 0.05 (inositol 33 mg/kg oral vs piroxicam-only control) | Lesions/Rat (X +/- SE) (inositol 33 mg/kg oral, with 120 mg/kg oral piroxicam ethanolamine salt, fasted male rats, 6.5 h, 40 rats) | Significance p < 0.05 (inositol 100 mg/kg oral vs piroxicam-only control) | Lesions/Rat (X +/- SE) (inositol 100 mg/kg oral, with 120 mg/kg oral piroxicam ethanolamine salt, fasted male rats, 6.5 h, 40 rats) | Significance p < 0.05 (inositol 333 mg/kg oral vs piroxicam-only control) | Lesions/Rat (X +/- SE) (inositol 333 mg/kg oral, with 120 mg/kg oral piroxicam ethanolamine salt, fasted male rats, 6.5 h, 40 rats) | Lesions/Rat (X +/- SE) (control: 120 mg/kg oral piroxicam ethanolamine salt alone, inositol 0 mg/kg, 6.5 h, 30 rats)
O[C@H]1[C@H](O)[C@@H](O)[C@H](O)[C@@H](O)[C@H]1O [Inositol, cis-1,2,3,4-trans-4,6-cyclohexanehexol] | 85 mg/kg | significantly reduces | + (p < 0.05) | 4.7 (0.9) Lesions/Rat | + (p < 0.05) | 5.2 (0.7) Lesions/Rat | + (p < 0.05) | 3.6 (0.6) Lesions/Rat | + (p < 0.05) | 3.0 (0.8) Lesions/Rat | –
CN1C(C(=O)Nc2ccccn2)=C(O)c2ccccc2S1(=O)=O [ethanolamine salt of piroxicam] | – | – | – | – | – | – | – | – | – | – | 7.5 (0.8) Lesions/Rat
